Reference: patent US11753395B2 (Kinnate Biopharma Inc., priority 2021, dated 2023)

Assays:
MET = target: T1, MET (Homo sapiens, UniProt P08581); experiment: MET Mobility Shift Assay; conditions: biochemical assay IC50; 100 μM ATP, 60 minute kinase reaction
T1 construct: purchased Carna Biosciences 08-151
How it was run: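 Recombinant MET at 0.625 nM was pre-incubated 30 min at room temperature with 1.5 μM FLPeptide30 and 10 mM MgCl2 in HEPES buffer with DTT. The reaction was started with 100 μM ATP, ran 60 min, and was stopped with EDTA. Microfluidic mobility-shift % conversion gave IC50.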

MET D1228N = target: T2, MET D1228N (Homo sapiens, UniProt P08581, D1228N); experiment: MET D1228N Mobility Shift Assay; conditions: biochemical assay IC50; 100 μM ATP, 60 minute kinase reaction
T2 construct: purchased Signalchem M52-12IG
T2 sequence (P08581 25-1390 D1228N): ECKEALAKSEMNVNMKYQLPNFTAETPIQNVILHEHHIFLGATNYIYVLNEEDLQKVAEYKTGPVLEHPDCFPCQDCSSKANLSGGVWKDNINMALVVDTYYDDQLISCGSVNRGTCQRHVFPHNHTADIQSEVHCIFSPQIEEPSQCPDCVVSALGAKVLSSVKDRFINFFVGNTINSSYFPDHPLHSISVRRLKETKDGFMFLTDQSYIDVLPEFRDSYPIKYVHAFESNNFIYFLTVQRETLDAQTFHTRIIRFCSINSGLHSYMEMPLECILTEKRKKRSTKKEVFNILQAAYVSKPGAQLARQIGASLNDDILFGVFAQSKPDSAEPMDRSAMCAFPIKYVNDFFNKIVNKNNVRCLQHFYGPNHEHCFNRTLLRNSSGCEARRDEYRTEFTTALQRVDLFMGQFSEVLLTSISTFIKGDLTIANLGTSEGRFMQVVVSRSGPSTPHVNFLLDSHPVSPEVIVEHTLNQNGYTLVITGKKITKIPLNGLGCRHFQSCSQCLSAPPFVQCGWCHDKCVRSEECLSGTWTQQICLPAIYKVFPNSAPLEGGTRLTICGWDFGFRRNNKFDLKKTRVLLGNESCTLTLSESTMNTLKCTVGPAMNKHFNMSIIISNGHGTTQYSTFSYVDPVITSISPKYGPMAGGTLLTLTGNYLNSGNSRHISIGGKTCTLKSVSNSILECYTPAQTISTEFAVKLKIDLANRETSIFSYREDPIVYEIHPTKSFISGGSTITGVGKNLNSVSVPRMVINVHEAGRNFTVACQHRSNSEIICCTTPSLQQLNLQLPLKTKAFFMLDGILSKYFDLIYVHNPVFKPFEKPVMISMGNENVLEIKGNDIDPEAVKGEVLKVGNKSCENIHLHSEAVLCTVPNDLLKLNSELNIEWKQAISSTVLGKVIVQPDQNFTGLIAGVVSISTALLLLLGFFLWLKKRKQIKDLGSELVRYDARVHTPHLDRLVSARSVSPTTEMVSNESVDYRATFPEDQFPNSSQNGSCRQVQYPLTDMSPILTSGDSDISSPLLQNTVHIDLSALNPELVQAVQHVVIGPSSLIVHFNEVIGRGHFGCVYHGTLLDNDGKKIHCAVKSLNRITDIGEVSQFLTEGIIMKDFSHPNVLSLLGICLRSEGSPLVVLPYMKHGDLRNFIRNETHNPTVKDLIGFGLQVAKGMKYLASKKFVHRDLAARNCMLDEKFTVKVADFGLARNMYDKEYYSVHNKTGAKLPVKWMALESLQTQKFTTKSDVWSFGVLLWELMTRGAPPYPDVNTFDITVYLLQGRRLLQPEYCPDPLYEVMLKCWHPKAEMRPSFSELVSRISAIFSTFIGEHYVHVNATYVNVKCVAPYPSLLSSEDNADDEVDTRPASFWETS
How it was run: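 Enzyme at 0.313 nM preincubated 30 min at room temperature with 1.5 μM FAM-labelled peptide and 10 mM MgCl2 in HEPES buffer with DTT; reaction started with 100 μM ATP, run 60 min, stopped with EDTA. Substrate/product separated by microfluidic mobility shift; IC50 from inhibition of % conversion.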

Ba/F3-TPR-MET cells = target: T3, Ba/F3-TPR-MET cells (Homo sapiens, UniProt P08581); experiment: CellTiter-Glo Cell Viability Assay, Ba/F3-TPR-MET; assay type: cell-based; conditions: 72 hours
T3 construct: fused on or other part: P12270 (Nucleoprotein TPR)
T3 sequence (P08581 whole entry, change not shown, the tested form may be a part): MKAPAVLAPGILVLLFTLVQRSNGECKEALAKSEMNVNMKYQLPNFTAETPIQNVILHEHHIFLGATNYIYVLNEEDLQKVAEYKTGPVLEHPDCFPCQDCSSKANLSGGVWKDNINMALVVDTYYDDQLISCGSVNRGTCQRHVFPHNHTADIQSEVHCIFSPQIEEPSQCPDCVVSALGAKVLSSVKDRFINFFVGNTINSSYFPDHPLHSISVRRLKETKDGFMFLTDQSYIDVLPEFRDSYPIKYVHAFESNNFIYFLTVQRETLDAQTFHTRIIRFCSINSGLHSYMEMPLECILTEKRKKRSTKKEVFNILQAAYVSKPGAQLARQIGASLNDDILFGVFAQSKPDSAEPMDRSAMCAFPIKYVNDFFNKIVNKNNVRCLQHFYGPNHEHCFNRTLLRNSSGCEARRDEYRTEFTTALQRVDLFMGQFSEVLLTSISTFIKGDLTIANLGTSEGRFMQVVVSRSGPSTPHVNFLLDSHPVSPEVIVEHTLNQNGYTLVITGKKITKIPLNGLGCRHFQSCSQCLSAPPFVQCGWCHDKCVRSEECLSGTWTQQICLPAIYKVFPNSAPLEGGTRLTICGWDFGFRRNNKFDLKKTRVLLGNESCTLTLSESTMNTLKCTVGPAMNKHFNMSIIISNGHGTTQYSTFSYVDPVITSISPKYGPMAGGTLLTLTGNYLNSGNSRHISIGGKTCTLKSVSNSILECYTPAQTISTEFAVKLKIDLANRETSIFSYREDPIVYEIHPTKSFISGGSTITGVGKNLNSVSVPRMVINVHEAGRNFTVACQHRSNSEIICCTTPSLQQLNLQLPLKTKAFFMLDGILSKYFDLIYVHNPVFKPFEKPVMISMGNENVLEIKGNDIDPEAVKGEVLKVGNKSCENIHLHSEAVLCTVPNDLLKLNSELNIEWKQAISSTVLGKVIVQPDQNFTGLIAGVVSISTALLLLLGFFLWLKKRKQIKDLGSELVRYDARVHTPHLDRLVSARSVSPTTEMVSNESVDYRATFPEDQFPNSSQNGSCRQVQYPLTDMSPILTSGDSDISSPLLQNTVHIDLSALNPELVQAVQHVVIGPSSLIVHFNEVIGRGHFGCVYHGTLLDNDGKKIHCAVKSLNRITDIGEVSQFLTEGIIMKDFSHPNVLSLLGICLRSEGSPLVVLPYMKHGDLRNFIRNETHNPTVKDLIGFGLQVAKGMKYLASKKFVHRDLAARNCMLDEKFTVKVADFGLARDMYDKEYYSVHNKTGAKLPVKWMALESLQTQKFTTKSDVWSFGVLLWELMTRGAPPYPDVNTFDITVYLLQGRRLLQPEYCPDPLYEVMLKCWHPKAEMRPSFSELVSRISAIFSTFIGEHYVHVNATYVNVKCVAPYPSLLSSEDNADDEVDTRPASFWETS
How it was run: (§1)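 Ba/F3 cells carrying TPR-MET or TPR-MET-D1228N, 3000 per well, were exposed for 72 h at 37 °C to 9-point 3-fold compound dilutions at 0.1% DMSO. Viability was read as ATP by CellTiter-Glo 2.0 luminescence, and IC50 values came from curve fitting.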

[1] = target: T4, Ba/F3-TPR-MET-D1228N cells (Homo sapiens, UniProt P08581, D1228N, cells depend on it); experiment: CellTiter-Glo Cell Viability Assay, Ba/F3-TPR-MET-D1228N; assay type: cell-based; conditions: 72 hours
T4 construct: fused on or other part: P12270 (Nucleoprotein TPR)
T4 sequence (P08581 whole entry D1228N, the tested form may be a part): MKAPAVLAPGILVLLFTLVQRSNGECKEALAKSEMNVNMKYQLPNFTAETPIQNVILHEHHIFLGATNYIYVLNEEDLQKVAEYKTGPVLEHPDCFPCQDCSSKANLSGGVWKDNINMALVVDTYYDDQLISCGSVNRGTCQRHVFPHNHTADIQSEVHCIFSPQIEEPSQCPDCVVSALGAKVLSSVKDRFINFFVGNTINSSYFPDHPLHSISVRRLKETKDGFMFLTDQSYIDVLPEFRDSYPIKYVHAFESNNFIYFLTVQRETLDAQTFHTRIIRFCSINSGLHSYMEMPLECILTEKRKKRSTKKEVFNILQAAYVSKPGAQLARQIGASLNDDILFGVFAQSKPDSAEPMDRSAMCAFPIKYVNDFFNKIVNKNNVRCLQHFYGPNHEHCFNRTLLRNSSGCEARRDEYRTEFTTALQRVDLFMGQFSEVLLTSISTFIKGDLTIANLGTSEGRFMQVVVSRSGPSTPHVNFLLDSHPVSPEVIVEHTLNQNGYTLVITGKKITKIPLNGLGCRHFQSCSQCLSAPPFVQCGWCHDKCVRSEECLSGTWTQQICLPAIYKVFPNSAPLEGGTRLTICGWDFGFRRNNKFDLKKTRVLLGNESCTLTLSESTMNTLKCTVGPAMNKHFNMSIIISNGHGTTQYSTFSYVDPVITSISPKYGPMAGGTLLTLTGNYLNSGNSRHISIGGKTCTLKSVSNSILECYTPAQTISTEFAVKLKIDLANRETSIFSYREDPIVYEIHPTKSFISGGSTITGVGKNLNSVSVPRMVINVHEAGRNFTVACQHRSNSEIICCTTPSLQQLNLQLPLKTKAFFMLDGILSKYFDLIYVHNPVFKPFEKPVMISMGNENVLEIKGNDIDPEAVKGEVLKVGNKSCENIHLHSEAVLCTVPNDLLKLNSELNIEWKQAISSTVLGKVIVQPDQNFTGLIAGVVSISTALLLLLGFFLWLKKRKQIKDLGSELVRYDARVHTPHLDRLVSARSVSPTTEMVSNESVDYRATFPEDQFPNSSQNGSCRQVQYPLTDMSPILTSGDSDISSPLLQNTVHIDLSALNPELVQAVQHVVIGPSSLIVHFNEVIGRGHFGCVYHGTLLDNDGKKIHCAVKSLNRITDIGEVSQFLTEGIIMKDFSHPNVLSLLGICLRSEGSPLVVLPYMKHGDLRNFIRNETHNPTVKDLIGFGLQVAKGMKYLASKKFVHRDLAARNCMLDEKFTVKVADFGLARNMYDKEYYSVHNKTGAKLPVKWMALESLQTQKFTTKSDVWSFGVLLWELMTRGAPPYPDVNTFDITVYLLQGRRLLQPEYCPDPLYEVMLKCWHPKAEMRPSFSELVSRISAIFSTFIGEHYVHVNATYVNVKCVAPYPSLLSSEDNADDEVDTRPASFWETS
How it was run: as §1

| Compound | IC50 (MET) [nM] | IC50 (MET D1228N) [nM] | EC50 (Ba/F3-TPR-MET cells) [nM] | EC50 [1] [nM] |
| --- | --- | --- | --- | --- |
| CNCCOc1ccc2c(Oc3c(F)cc(NC(=O)c4c(OC)ccnc4F)cc3F)ccnc2c1 [Example 9, N-(3,5-difluoro-4-((7-(2-(methylamino)ethoxy)quinolin-4-yl)oxy)phenyl)-2-fluoro-4-methoxypyridine-3-carboxamide] | ≤ 100 | ≤ 100 | 100 to 1000 | ≤ 100 |
| CNCCOc1cc2nccc(Oc3c(F)cc(NC(=O)c4cnccc4OC4CC4)cc3F)c2cc1OC [Example 54, 4-cyclopropoxy-N-[3,5-difluoro-4-({6-methoxy-7-[2-(methylamino)ethoxy]quinolin-4-yl}oxy)phenyl]pyridine-3-carboxamide] | ≤ 100 | ≤ 100 | ≤ 100 | ≤ 100 |
| CCOc1ccncc1C(=O)Nc1ccc(Oc2ccnc3cc(OCCNC)c(OC)cc23)c(F)c1F [Example 16, N-(2,3-difluoro-4-((6-methoxy-7-(2-(methylamino)ethoxy)quinolin-4-yl)oxy)phenyl)-4-ethoxypyridine-3-carboxamide] | ≤ 100 | ≤ 100 | 100 to 1000 | 100 to 1000 |
| CNCCOc1cc2nccc(Oc3c(F)cc(NC(=O)c4cnccc4O[C@H]4CCOC4)cc3F)c2cc1OC [Example 71, N-[3,5-difluoro-4-({6-methoxy-7-[2-(methylamino)ethoxy]quinolin-4-yl}oxy)phenyl]-4-[(3S)-oxolan-3-yloxy]pyridine-3-carboxamide] | ≤ 100 | ≤ 100 | 100 to 1000 | 100 to 1000 |
| CNCCOc1cc2nccc(Oc3c(F)cc(NC(=O)c4cnccc4OC4COC4)cc3F)c2cc1OC [Example 68, N-[3,5-difluoro-4-({6-methoxy-7-[2-(methylamino)ethoxy]quinolin-4-yl}oxy)phenyl]-4-(oxetan-3-yloxy)pyridine-3-carboxamide] | ≤ 100 | ≤ 100 | 100 to 1000 | ≤ 100 |
| COc1cc2c(Oc3c(F)cc(NC(=O)c4cnccc4OC)cc3F)ccnc2cc1OC(F)F [Example 38, N-(4-((7-(difluoromethoxy)-6-methoxyquinolin-4-yl)oxy)-3,5-difluorophenyl)-4-methoxypyridine-3-carboxamide] | ≤ 100 | ≤ 100 | > 10000 | > 10000 |
| COc1ccncc1C(=O)Nc1cc(F)c(Oc2ccnc3cc(OCC(C)(C)O)ccc23)c(F)c1 [Example 40, N-(3,5-difluoro-4-{[7-(2-hydroxy-2-methylpropoxy)quinolin-4-yl]oxy}phenyl)-4-methoxypyridine-3-carboxamide] | ≤ 100 | ≤ 100 | 100 to 1000 | 100 to 1000 |
| CNCCOc1cc2nccc(Oc3c(F)cc(NC(=O)c4cnccc4O[C@@H]4CCOC4)cc3F)c2cc1OC [Example 70, N-[3,5-difluoro-4-({6-methoxy-7-[2-(methylamino)ethoxy]quinolin-4-yl}oxy)phenyl]-4-[(3R)-oxolan-3-yloxy]pyridine-3-carboxamide] | ≤ 100 | ≤ 100 | 100 to 1000 | 100 to 1000 |
| CNCCOc1cc2nccc(Oc3c(F)cc(NC(=O)c4cnccc4OC(C)C)cc3F)c2cc1OC [Example 59, N-[3,5-difluoro-4-({6-methoxy-7-[2-(methylamino)ethoxy]quinolin-4-yl}oxy)phenyl]-4-isopropoxypyridine-3-carboxamide] | ≤ 100 | ≤ 100 | ≤ 100 | ≤ 100 |
| COc1ccc2c(Oc3c(F)cc(NC(=O)c4cnccc4OC)cc3F)ccnc2c1 [Example 35, N-{3,5-difluoro-4-[(7-methoxyquinolin-4-yl)oxy]phenyl}-4-methoxypyridine-3-carboxamide] | ≤ 100 | ≤ 100 | 100 to 1000 | 100 to 1000 |
| COc1cc2c(Oc3c(F)cc(NC(=O)c4cnccc4OC)cc3F)ccnc2cc1OCCN1CCOCC1 [Example 29, N-[3,5-difluoro-4-({6-methoxy-7-[2-(morpholin-4-yl)ethoxy]quinolin-4-yl}oxy)phenyl]-4-methoxypyridine-3-carboxamide] | ≤ 100 | ≤ 100 | ≤ 100 | ≤ 100 |
| CNCCOc1cc2nccc(Oc3c(F)cc(NC(=O)c4cnccc4OC[C@@H](C)F)cc3F)c2cc1OC [Example 61, N-[3,5-difluoro-4-({6-methoxy-7-[2-(methylamino)ethoxy]quinolin-4-yl}oxy)phenyl]-4-[(2R)-2-fluoropropoxy]pyridine-3-carboxamide] | ≤ 100 | ≤ 100 | ≤ 100 | ≤ 100 |

Second part, led by results:

| IC50 (MET) [nM] | IC50 (MET D1228N) [nM] | Compound | EC50 (Ba/F3-TPR-MET cells) [nM] | EC50 [1] [nM] |
| --- | --- | --- | --- | --- |
| ≤ 100 | ≤ 100 | COc1ccncc1C(=O)Nc1cc(F)c(Oc2ccnc3cc(OC)c(O[C@@H](C)CO)nc23)c(F)c1 [Example 145, (S)-N-(3,5-difluoro-4-((6-((1-hydroxypropan-2-yl)oxy)-7-methoxy-1,5-naphthyridin-4-yl)oxy)phenyl)-4-methoxynicotinamide] | ≤ 100 | ≤ 100 |
| ≤ 100 | ≤ 100 | CNCCOc1cc2nccc(Oc3c(F)cc(NC(=O)c4cnc(F)cc4OC4CC4)cc3F)c2cc1OC [Example 110, 4-cyclopropoxy-N-[3,5-difluoro-4-({6-methoxy-7-[2-(methylamino)ethoxy]quinolin-4-yl}oxy)phenyl]-6-fluoropyridine-3-carboxamide] | ≤ 100 | ≤ 100 |
| ≤ 100 | ≤ 100 | CNCCOc1ccc2c(Oc3c(F)cc(NC(=O)c4cnc(F)cc4OC4CC4)cc3F)ccnc2c1 [Example 109, 4-cyclopropoxy-N-(3,5-difluoro-4-((7-(2-(methylamino)ethoxy)quinolin-4-yl)oxy)phenyl)-6-fluoropyridine-3-carboxamide] | ≤ 100 | ≤ 100 |
| ≤ 100 | ≤ 100 | COc1ccncc1C(=O)Nc1cc(F)c(Oc2ccnc3ccc(O[C@@H](C)CO)cc23)c(F)c1 [Example 130, (S)-N-(3,5-difluoro-4-((6-((1-hydroxypropan-2-yl)oxy)quinolin-4-yl)oxy)phenyl) -4-methoxynicotinamide] | 100 to 1000 | ≤ 100 |
| ≤ 100 | ≤ 100 | COc1cc2nccc(Oc3c(F)cc(NC(=O)c4cnccc4OC)cc3F)c2cc1OCC(C)(C)O [Example 125, N-(3,5-difluoro-4-{[6-(2-hydroxy-2-methylpropoxy)-7-methoxyquinolin-4-yl]oxy}phenyl)-4-methoxypyridine-3-carboxamide] | ≤ 100 | ≤ 100 |
| ≤ 100 | ≤ 100 | CNCCOc1ccc2c(Oc3c(F)cc(NC(=O)c4cnc(Cl)cc4OC4CC4)cc3F)ccnc2c1 [Example 113, 6-chloro-4-cyclopropoxy-N-[3,5-difluoro-4-({7-[2-(methylamino)ethoxy]quinolin-4-yl}oxy)phenyl]pyridine-3-carboxamide] | ≤ 100 | ≤ 100 |
| ≤ 100 | ≤ 100 | COc1ccncc1C(=O)Nc1cc(F)c(Oc2ccnc3cc(OCCO)c(OC)nc23)c(F)c1 [Example 138, N-(3,5-difluoro-4-((7-(2-hydroxyethoxy)-6-methoxy-1,5-naphthyridin-4-yl)oxy)phenyl)-4-methoxypyridine-3-carboxamide] | ≤ 100 | ≤ 100 |
| ≤ 100 | ≤ 100 | CNCCOc1cc2nccc(Oc3c(F)cc(NC(=O)c4cnc(Cl)cc4OC4CC4)cc3F)c2cc1OC [Example 112, 6-chloro-4-cyclopropoxy-N-[3,5-difluoro-4-({6-methoxy-7-[2-(methylamino)ethoxy]quinolin-4-yl}oxy)phenyl]pyridine-3-carboxamide] | 100 to 1000 | 100 to 1000 |
| ≤ 100 | ≤ 100 | COc1cc2c(Oc3c(F)cc(NC(=O)c4c(OC5CC5)ccnc4F)cc3F)ccnc2cc1OCCO [Example 118] | ≤ 100 | ≤ 100 |
| ≤ 100 | ≤ 100 | COCCOc1cc2nccc(Oc3c(F)cc(NC(=O)c4cnccc4OC)cc3F)c2nc1OC [Example 137, N-(3,5-difluoro-4-((6-methoxy-7-(2-methoxyethoxy)-1,5-naphthyridin-4-yl)oxy)phenyl)-4-methoxypyridine-3-carboxamide] | ≤ 100 | ≤ 100 |
| ≤ 100 | ≤ 100 | C[C@@H](O)COc1ccc2c(Oc3c(F)cc(NC(=O)c4cnccc4OC4CC4)cc3F)ccnc2c1 [Example 101, 4-cyclopropoxy-N-[3,5-difluoro-4-({7-[(2R)-2-hydroxypropoxy]quinolin-4-yl}oxy)phenyl]pyridine-3-carboxamide] | 100 to 1000 | 100 to 1000 |
